Source: patent US6638974B1, “Ascorbyl esters for the treatment of cancer” (University of South Florida, priority 1999, dated 2003)

Test system: OVCAR-3 and PANC-1 s.c. tumors
Experiment: s.c. OVCAR-3 and PANC-1 tumors in BALB/c nude mice
Type: in vivo, mouse
Conditions: 100 mg/Kg s.c. daily for two weeks
Protocol: The experimental approach is to test effect of Ascorbyl stearate (Asc-S) on the tumorigenicity of ovarian and pancreatic tumor cells. Procedures involve culturing OVCOR-3 (ovarian cancer cells) and PANC-1 (pancreatic cancer cells). When confluent, cells were trypsinized, washed and resuspended in sterile phosphate buffered solution ([…]) in a volume of 0.1 ml and injected s.c. above the hind leg of the mice. Two groups each for OVCOR-3 and PANC-1 tumor cells were established.
Asc-S is lipophilic compound. Asc-S was dissolved in a small volume of ethyl alcohol and then reconstituted in sterile normal saline. The final concentration of ethyl alcohol was ˜5%. At that concentration ethyl alcohol would not have any deleterious effect. […] The controls received […] of a mixture of 0.5:10 ethyl alcohol and sterile normal saline.
Group 1 is made up of OVCAR-3 cells plus Vehicle. A mixture of 0.5:10 of ethyl alcohol and normal saline was used as the vehicle. Group 2 is made up of OVCAR-3 cells plus Asc-S at a concentration of 100 mg/Kg was administered subcutaneously at the vicinity of the s.c. tumor one week prior to treatment with Asc-S. The Asc-S was distributed in a small volume of ethyl alcohol and then reconstituted into normal saline. […]
For the preliminary studies, six mice per group were used. […] The s.c. tumors were isolated, tumor sizes were measured and processed for pathological evaluation. […]

CCCCCCCCCCCCCCCCCC(=O)OC[C@H](O)[C@H]1OC(=O)C(O)=C1O [Asc-S, Ascorbyl stearate]
apoptotic cells in s.c. tumors (pathological evaluation): predominantly higher percentage of apoptotic cells
decrease in the size of the tumors compared to untreated controls: 70%
